Experiments:
Format in all cases: binding
[1] = tested on: human monoclonal antibody CRJA
[2] = tested on: human monoclonal antibody CR57
[3] = tested on: human monoclonal antibody CRJB
[4] = tested on: human monoclonal antibody CR57; remark: listed apart in the source
[5] = tested on: human monoclonal antibody CRJA; remark: listed apart in the source
[6] = tested on: human monoclonal antibody CRJB; remark: listed apart in the source

| Sequence | Binding of CRJA (10 μg/ml) to looped/cyclic peptide (PEPSCAN-ELISA) [1] | Binding of CR57 to linear peptide (PEPSCAN-ELISA signal) [2] | Binding of CRJB (10 μg/ml) to looped/cyclic peptide (PEPSCAN-ELISA) [3] | Binding of CR57 (10 μg/ml) to looped/cyclic peptide (PEPSCAN-ELISA) [4] | Binding of CRJA to linear peptide (PEPSCAN-ELISA signal) [5] | Binding of CRJB to linear peptide (PEPSCAN-ELISA signal) [6] | Binding of CRJA (10 μg/ml) to looped/cyclic peptide (PEPSCAN-ELISA signal) [1] | Binding of CRJB (10 μg/ml) to looped/cyclic peptide (PEPSCAN-ELISA signal) [3] | Binding of CR57 (10 μg/ml) to looped/cyclic peptide (PEPSCAN-ELISA signal) [4] | Binding of CRJA to looped/cyclic peptide (PEPSCAN-ELISA signal) [1] | Binding of human monoclonal antibody CR57 to linear peptide (PEPSCAN-ELISA signal) [2] | Binding of CRJB to looped/cyclic peptide (PEPSCAN-ELISA signal) [3] | Binding of CR57 to looped/cyclic peptide (PEPSCAN-ELISA signal) [4] | Binding of human monoclonal antibody CRJA to linear peptide (PEPSCAN-ELISA signal) [5] | Binding of human monoclonal antibody CRJB to linear peptide (PEPSCAN-ELISA signal) [6] | binding of antibody CR57 to linear peptide (PEPSCAN OD) [2] |
| --- | --- | --- | --- | --- | --- | --- | --- | --- | --- | --- | --- | --- | --- | --- | --- | --- |
| RKREECLDALESIMT | 129 | 73 | 96 | 132 | 96 | 110 | – | – | – | – | – | – | – | – | – | – |
| WSPIDIHHLSCPNNL | – | 80 | – | – | 83 | 106 | 151 | 92 | 89 | – | – | – | – | – | – | – |
| GKRASKGSETCGFVD | 93 | 92 | 71 | 82 | 97 | 124 | – | – | – | – | – | – | – | – | – | – |
| PRYEESLHNPYPDYR | – | 73 | – | – | 103 | 115 | 99 | 79 | 92 | – | – | – | – | – | – | – |
| RASKGSETCGFVDER | 100 | 86 | 90 | 105 | 90 | 110 | – | – | – | – | – | – | – | – | – | – |
| NLHDFRSDEIEHLVV | 86 | 83 | 62 | 90 | 97 | 113 | – | – | – | – | – | – | – | – | – | – |
| LKVGYILAIKMNGFT | – | 78 | – | – | 68 | 112 | 76 | 74 | 58 | – | – | – | – | – | – | – |
| LHSRVFPSGKCSGVA | – | 78 | – | – | 134 | 114 | 117 | 111 | 110 | – | – | – | – | – | – | – |
| ENPRLGMSCDIFTNS | – | 71 | – | – | 101 | 118 | 113 | 88 | 100 | – | – | – | – | – | – | – |
| CLDALESIMTTKSVS | 123 | 101 | 90 | 111 | 106 | 146 | – | – | – | – | – | – | – | – | – | – |
| PRLGMSCDIFTNSRG | – | 72 | – | – | 108 | 112 | 96 | 89 | 87 | – | – | – | – | – | – | – |
| DFVEVHLPDVHNQVS | – | – | – | – | – | – | – | – | – | 113 | 96 | 92 | 113 | 92 | 141 | – |
| SIMTTKSVSFRRLSH | 72 | 54 | 25 | 69 | 92 | 130 | – | – | – | – | – | – | – | – | – | – |
| PHVNGVFFNGIILGP | 107 | 93 | 134 | 112 | 117 | 173 | – | – | – | – | – | – | – | – | – | – |
| SLHNPYPDYRWLRTV | – | 78 | – | – | 87 | 111 | 99 | 90 | 104 | – | – | – | – | – | – | – |
| LKGACKLKLCGVLGL | 87 | 340 | 76 | 105 | 100 | 90 | – | – | – | – | – | – | – | – | – | bound |
| YTILDKLGPWSPIDI | – | 48 | – | – | 93 | 114 | 91 | 73 | 75 | – | – | – | – | – | – | – |
| LLESSVIPLVHPLAD | 91 | 72 | 76 | 93 | 92 | 117 | – | – | – | – | – | – | – | – | – | – |
| FNGIILGPDGNVLIP | 106 | 61 | 88 | 94 | 99 | 139 | – | – | – | – | – | – | – | – | – | – |
| HPLADPSTVFKDGDE | – | – | – | – | – | – | – | – | – | 115 | 74 | 93 | 111 | 100 | 141 | – |
| LVRKREECLDALESI | 101 | 86 | 82 | 105 | 107 | 130 | – | – | – | – | – | – | – | – | – | – |
| HFRPTPDACRAAYNW | – | 46 | – | – | 93 | 113 | 62 | 71 | 65 | – | – | – | – | – | – | – |
| DIHHLSCPNNLVVED | – | 38 | – | – | 61 | 96 | 62 | 48 | 52 | – | – | – | – | – | – | – |
| DGDEAEDFVEVHLPD | – | – | – | – | – | – | – | – | – | 71 | 85 | 102 | 71 | 97 | 123 | – |

— patent US20060263802A1 (priority 2003, published 2006)
